Source: patent US8617540B2, “Combinational chemotherapy treatment” (Fox Chase Cancer Center, priority 2009, dated 2013)
Read-outs that look alike come from different tables or passages of the source.

Assays:
HT-29 = test: Caspase inhibitor rescue from cell killing by 5-FU and HmdU; format: cell-based; conditions: caspase inhibitor added
Protocol: Further, experiments were performed to uncover whether the combined treatment with 5-FU and HmdU induces PARP1 cleavage, which would indicate that apoptosis is the pathway responsible for the cytotoxic effects. […] Both of the results in FIGS. 17 and 18 indicate that the cell killing by the combined drug treatment is not via apoptosis. However, the combination has a synergistic effect on the cytotoxicities of 5-FU and HmdU, and derivatives thereof.

HT-29 colon cancer cells = test: Cell growth assay (WST-1), combination analysed with CombiTool; format: cell-based; conditions: for synergistic activity on growth inhibition when combined with 5-FU: HmdU related drug combined with 5-FU; for synergistic activity on growth inhibition in combination with HmdU: 5-FU related compound used with HmdU
Protocol: In a typical cell growth assay, cells were plated in 96-well plates on Day 0, and indicated concentrations of drugs were added on Day 1. Each condition was replicated in triplicate. Subsequently, quantities of metabolically active cells in each well were measured by WST-1 assay on Day 4. The WST-1 assay (assay reagents from Roche) measures the concentration of formazan converted from a tetrazolium salt, WST-1, by a mitochondrial succinate-tetrazolium-reductase system.
CombiTool is a computer program for the analysis of combination effects of biologically active agents and is described in Dressler et al. (Computers and Biomedical Research (1999) 32:145-160). It performs model calculations and an analysis of experimental combination effects for two or three agents according to both the Bliss independence and the Loewe additivity criteria. Zero interaction response surfaces are calculated from single-agent dose-response relations and compared to experimental combination data. The calculation of response surfaces for Loewe additivity is based on a new approach which combines the implicit definition equation in terms of doses alone with single-agent dose-response relations. CombiTool has a built-in graphics facility which allows for the direct visualization of the response surfaces or the corresponding contour plots and the experimental data.
In the present example, the in vitro effects of 5-FU and HmdU treatment were assessed in several cell lines. […] FIG. 1B show the results interpreted with the CombiTool program which indicates synergistic experimental data by large gray circles above the lower additive results when the drugs are used alone. […] FIGS. 1C and 1D show similar results from experiments in the colon cancel cell line, HCT116.
Further testing was performed on the HT-29 cell line to assess whether compounds that are structurally and/or functionally related to 5-FU and HmdU also display synergistic activity on growth inhibition. In a series of experiments 5-FU was tested with: (1) 5-Hydroxymethyluracil (HmU), a base form which is subsequently converted to a nucleoside form, HmdUrd; (2) Deoxyuridine (dUrd), a nucleoside which is different from HmdU by the lack of modification at the 5-carbon position; and (3) 5-Hydroxydeoxyuridine (OHdU), a nucleoside which is different from HmdU by the lack of a methyl group in the 5-carbon modification. […] See FIG. 7A-7D (HmU—obtained from Cayman Chemical and Aldrich Chemical Company, respectively+5FU), FIG. 8A-8B (dUrd+5FU), and FIG. 9A-9B (OHdU+5FU).
Another set of experiments tested several alternative 5-FU agents in combination with HmdU to determine if synergy exists when the agents were administered in combination. The 5-FU related compounds used with HmdU were: (1) 5-Fluorodeoxyuridine (5-FdU), a deoxyribonucleoside (2) Deoxyadenosine (dA), an agent capable of decreasing dTTP; and (3) Raltitrexed, a structural analog of 5,10-methylene tetrahydrofolate (CH2THF), and a specific inhibitor of thymidylate synthase (TS). […] See FIGS. 11 (dA) and 12 (Raltitrexed).

HT-29 cells = test: Cell cycle analysis of synchronized cells; format: cell-based; conditions: 48 h of treatment with 5-FU and HmdU
Protocol: Panel A is a cell cycle analysis of synchronized HT-29 cells with 5-FU, HmdU, and combined 5-FU/HmdU treatment over a period of two days.
First, clonogenic assays were performed to determine the time course of the combination of 5-FU and HmdU. […] Subsequently, cell cycle distribution was assessed.

[1] = tested on: cells treated with 5-FU and HmdU; test: Effect of PARP-1 inhibitors on cytotoxicity of 5-FU and HmdU; conditions: PARP-1 inhibitor added
From the text: (§1) Taking account of effect of 3-aminobenzamide on cell cycle shown FIG. 14B, effects of PARP-1 inhibitors on cytotoxicity were examined.

[2] = tested on: cells treated with 5-FU and HmdU
From the text: as §1

Row | Structure (SMILES) | synergistic activity on growth inhibition when combined with 5-FU (HT-29 colon cancer cells) | synergistic activity on growth inhibition in combination with HmdU (HT-29 colon cancer cells) | also measured
1 | CC(C)[C@H](NC(=O)c1ccc2ccccc2n1)C(=O)N[C@@H](CC(=O)O)C(=O)COc1c(F)cccc1F [QVD] |  |  | rescue from cell killing by the 5-FU and HmdU treatment (HT-29): did not rescue
2 | O=c1[nH]cc(CO)c(=O)[nH]1 [HmU, 5-Hydroxymethyluracil] | did not show any significant synergistic effects |  | 
3 | NC(=O)c1cccc(N)c1 [3-aminobenzamide] |  |  | effect of added agent on the cell cycle (HT-29 cells): allows cells to complete DNA replication; effect on growth inhibition by 5-FU and HmdU [1]: rescued cells from growth inhibition
4 | O=c1[nH]c(=O)n([C@H]2C[C@H](O)[C@@H](CO)O2)cc1O [OHdU, 5-Hydroxydeoxyuridine] | did not show any significant synergistic effects |  | 
5 | O=c1ccn([C@H]2C[C@H](O)[C@@H](CO)O2)c(=O)[nH]1 [dUrd, Deoxyuridine] | did not show any significant synergistic effects |  | 
6 | Cn1c(=O)c2c(ncn2C)n(C)c1=O [caffeine] |  |  | effect of added agent on the cell cycle (HT-29 cells): overcomes G2/M arrest
7 | Nc1ncnc2c1ncn2[C@H]1C[C@H](O)[C@@H](CO)O1 [dA, Deoxyadenosine] |  | did not show any significant synergistic effects | 
8 | Nc1ccc2c3c(cccc13)C(=O)NC2=O [4-amino-1,8-naphtalimide] |  |  | effect on growth inhibition by 5-FU and HmdU [2]: rescued cells from growth inhibition
9 | O=c1[nH]c(=O)n([C@H]2C[C@H](O)[C@@H](CO)O2)cc1F [5-FdU, 5-Fluorodeoxyuridine] |  | strong synergy | 
10 | Cc1nc2ccc(CN(C)c3ccc(C(=O)N[C@@H](CCC(=O)O)C(=O)O)s3)cc2c(=O)[nH]1 [Raltitrexed] |  | did not show any significant synergistic effects | 
